# Measured values as given in patent publication US20100292205A1, “Pyrimidone Compounds As GSK-3 Inhibitors” (PFIZER INC., priority 2006, published 2010).
# Target: T1, Recombinant human GSK3β (Homo sapiens, UniProt P49841)
# T1 construct: His-tag; made in house; host or cells: Sf9 insect cells / baculovirus
# Assay: GSK-3β (Glycogen Synthase Kinase) cell free enzyme assay
# Format: biochemical
# Details: cell free enzyme assay; Examples 62-155
# Outline: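 Recombinant human GSK3β, expressed in SF9/baculovirus cells and His-tag purified on Ni-NTA Superflow, was preincubated with test agent for 30 minutes at room temperature. Substrate mix was then added to start the reaction in 8 mM MOPS (pH 7.0), 10 mM magnesium acetate, 0.2 mM EDTA, 1 mM DTT, 2 uM cold ATP, 0.025 uCi/well [33P]ATP (120 uL) and 1.0 uM biotinylated peptide. Reactions ran at RT for 60 min.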
# T1 sequence (P49841 whole entry): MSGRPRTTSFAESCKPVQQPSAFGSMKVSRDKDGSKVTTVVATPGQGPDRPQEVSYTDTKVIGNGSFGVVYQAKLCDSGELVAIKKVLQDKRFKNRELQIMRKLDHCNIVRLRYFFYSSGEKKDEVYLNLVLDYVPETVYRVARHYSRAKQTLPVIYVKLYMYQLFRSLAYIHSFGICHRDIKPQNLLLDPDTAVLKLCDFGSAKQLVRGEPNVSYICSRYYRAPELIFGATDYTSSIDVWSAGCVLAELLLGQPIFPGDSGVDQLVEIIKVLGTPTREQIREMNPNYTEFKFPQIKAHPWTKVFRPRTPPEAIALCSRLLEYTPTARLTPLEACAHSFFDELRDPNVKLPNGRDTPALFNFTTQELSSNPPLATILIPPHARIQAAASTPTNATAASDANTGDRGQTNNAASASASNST
row,Structure (SMILES),IC50
1,"COC(=O)CCCC(=O)N1C[C@@H]2[C@H](C1)[C@H]2N(C)c1nc(-c2ccncc2F)cc(=O)n1C [Example 143, Methyl 5-[(1R,5S,6s)-6-{[4-(3-fluoropyridin-4-yl)-1-methyl-6-oxo-1,6-dihydropyrimidin-2-yl](methyl)amino}-3-azabicyclo[3.1.0]hex-3-yl]-5-oxopentanoate]",57.4 nM
2,"CN(c1nc(-c2ccncc2F)cc(=O)n1C)[C@H]1[C@@H]2CN(C(=O)c3cc(F)cc(F)c3)C[C@@H]21 [Example 144, 2-{[(1R,5S,6s)-3-(3,5-Difluorobenzoyl)-3-azabicyclo[3.1.0]hex-6-yl](methyl)amino}-6-(3-fluoropyridin-4-yl)-3-methylpyrimidin-4(3H)-one]",4.09 nM
3,"CC[C@@H](Oc1ccccc1)C(=O)N1C[C@@H]2[C@H](C1)[C@H]2N(C)c1nc(-c2ccncc2F)cc(=O)n1C [Example 145, 6-(3-Fluoropyridin-4-yl)-3-methyl-2-{methyl[(1R,5S,6s)-3-(2-phenoxybutanoyl)-3-azabicyclo[3.1.0]hex-6-yl]amino}pyrimidin-4(3H)-one]",13.2 nM
4,"CN(c1nc(-c2ccncc2F)cc(=O)n1C)[C@H]1[C@@H]2CN(C(=O)Cc3cccs3)C[C@@H]21 [Example 146, 6-(3-Fluoropyridin-4-yl)-3-methyl-2-{methyl[(1R,5S,6s)-3-(2-thienylacetyl)-3-azabicyclo[3.1.0]hex-6-yl]amino}pyrimidin-4(3H)-one]",6.16 nM
5,"Cc1cc(C(=O)N2C[C@@H]3[C@H](C2)[C@H]3N(C)c2nc(-c3ccncc3F)cc(=O)n2C)c(C)o1 [Example 147, 2-{[(1R,5S,6s)-3-(2,5-Dimethyl-3-furoyl)-3-azabicyclo[3.1.0]hex-6-yl](methyl)amino}-6-(3-fluoropyridin-4-yl)-3-methylpyrimidin-4(3H)-one]",3.7 nM
6,"CN(c1nc(-c2ccncc2F)cc(=O)n1C)[C@H]1[C@@H]2CN(C(=O)c3ccncc3Cl)C[C@@H]21 [Example 148, 2-{[(1R,5S,6s)-3-(3-Chloroisonicotinoyl)-3-azabicyclo[3.1.0]hex-6-yl](methyl)amino}-6-(3-fluoropyridin-4-yl)-3-methylpyrimidin-4(3H)-one]",36.1 nM
7,"CN(c1nc(-c2ccncc2F)cc(=O)n1C)[C@H]1[C@@H]2CN(C(=O)c3c(Cl)cccc3Cl)C[C@@H]21 [Example 149, 2-{[(1R,5S,6s)-3-(2,6-Dichlorobenzoyl)-3-azabicyclo[3.1.0]hex-6-yl](methyl)amino}-6-(3-fluoropyridin-4-yl)-3-methylpyrimidin-4(3H)-one]",3.81 nM

# More lines, now with the values ahead:
row,IC50,Structure (SMILES)
1,1.51 nM,"CN(c1nc(-c2ccncc2F)cc(=O)n1C)[C@H]1[C@@H]2CN(C(=O)c3ccccc3)C[C@@H]21 [Example 150, 2-{[(1R,5S,6s)-3-Benzoyl-3-azabicyclo[3.1.0]hex-6-yl](methyl)amino}-6-(3-fluoropyridin-4-yl)-3-methylpyrimidin-4(3H)-one]"
2,1.22 nM,"COc1ccc(C(=O)N2C[C@@H]3[C@H](C2)[C@H]3N(C)c2nc(-c3ccncc3F)cc(=O)n2C)c(OC)c1 [Example 151, 2-{[(1R,5S,6s)-3-(2,4-Dimethoxybenzoyl)-3-azabicyclo[3.1.0]hex-6-yl](methyl)amino}-6-(3-fluoropyridin-4-yl)-3-methylpyrimidin-4(3H)-one]"
3,7.23 nM,"CN(c1nc(-c2ccncc2F)cc(=O)n1C)[C@H]1[C@@H]2CN(C(=O)c3ccc(F)c(F)c3)C[C@@H]21 [Example 153, 2-{[(1R,5S,6s)-3-(3,4-Difluorobenzoyl)-3-azabicyclo[3.1.0]hex-6-yl](methyl)amino}-6-(3-fluoropyridin-4-yl)-3-methylpyrimidin-4(3H)-one]"
4,26.4 nM,"CN(c1nc(-c2ccncc2F)cc(=O)n1C)[C@H]1[C@@H]2CN(C(=O)c3ccc(C(F)(F)F)nc3)C[C@@H]21 [Example 154, 6-(3-Fluoropyridin-4-yl)-3-methyl-2-{methyl[(1R,5S,6s)-3-{[6-(trifluoromethyl)pyridin-3-yl]carbonyl}-3-azabicyclo[3.1.0]hex-6-yl]amino}pyrimidin-4(3H)-one]"
